Test results taken from patent publication US20260028354A1, “TETRAHYDRONAPHTHALENE DERIVATIVES AS ESTROGEN RECEPTOR DEGRADERS” (REGENT OF THE UNIVERSITY OF MICHIGAN, priority 2022, published 2026).
Where two headings read alike, the source gives them in different places.

How the values were obtained:
[1] = Cell growth assay (WST-8) for "B" compounds; type: cell-based; details: T47D, read-out: Cell growth Inhibition in T47D cell line IC50
Description: Cell Growth Assay. The cells were seeded at 1500/well in 96 well plates overnight. One day after the seeding, they were treated with indicated doses of compounds respectively, 4 days after the compound treatment, 10% WST-8 reagent was added to the culture medium and incubate in a CO2 incubator at 37° C. for 2.5 hours. Before reading, the plate was mixed gently on an orbital shaker for one minute to ensure homogeneous distribution of color. The absorbance was measured of each sample using a microplate reader at a wavelength of 450 nm. The relative absorbance was calculated against the vehicle control from three individually repeats.

[2] = Western blot analysis for "B" compounds; type: cell-based; details: read-out: Traditional Western Degradation Potency (DC50)
Procedure, shortened: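 Target protein levels given as relative mean band intensity over GAPDH from scanned immunoblots. Lysates of treated cells in RIPA buffer, equalized by BCA, separated on 10% gels and transferred to PVDF.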

In the case of `O=C1CC[C@H](N2Cc3c(ccc4c3OC[C@H]3CN(C[C@@H]5COC6(CCN(c7ccc([C@@H]8c9ccc(O)cc9CC[C@@H]8c8ccccc8)cc7)CC6)C5)CCN43)C2=O)C(=O)N1` [Compound B396, (S)-3-((R)-7-(((R)-8-(4-((1R,2S)-6-hydroxy-2-phenyl-1,2,3,4-tetrahydronaphthalen-1-yl)phenyl)-1-oxa-8-azaspiro[4.5]decan-3-yl)methyl)-1-oxo-1,3,5,5a,6,7,8,9-octahydro-2H-pyrazino[1′,2′:4,5][1,4]oxazino[2,3-e]isoindol-2-yl)piperidine-2,6-dione], the IC50 [1] is reported as under 1 nM.
For `O=C1CC[C@H](N2Cc3cc4c(cc3C2=O)OCC2(CN(CC3CCN(c5ccc([C@@H]6c7ccc(O)cc7CC[C@@H]6c6ccccc6)cc5)CC3)C2)O4)C(=O)N1` [Compound B395, (S)-3-(1-((1-(4-((1R,2S)-6-hydroxy-2-phenyl-1,2,3,4-tetrahydronaphthalen-1-yl)phenyl)piperidin-4-yl)methyl)-6′-oxo-6′,8′-dihydro-3′H,7′H-spiro[azetidine-3,2′-[1,4]dioxino[2,3-f]isoindol]-7′-yl)piperidine-2,6-dione], the IC50 ([1]; T47D cell line) was 1 to 10 nM.
For `O=C1CC[C@H](N2Cc3c(ccc4c3OC[C@H]3CN(CC5COC6(CCN(c7ccc([C@@H]8c9ccc(O)cc9CC[C@@H]8c8ccccc8)cc7)CC6)C5)CCN43)C2=O)C(=O)N1` (stereo partly drawn) [Compound B226, (3S)-3-((5aR)-7-((8-(4-((1R,2S)-6-hydroxy-2-phenyl-1,2,3,4-tetrahydronaphthalen-1-yl)phenyl)-1-oxa-8-azaspiro[4.5]decan-3-yl)methyl)-1-oxo-1,3,5,5a,6,7,8,9-octahydro-2H-pyrazino[1′,2′: 4,5][1,4]oxazino[2,3-e]isoindol-2-yl)piperidine-2,6-dione], the IC50 [1] was under 1 nM.
With `O=C1CCC(N2Cc3c(ccc4c3OC[C@@H]3CN(C(=O)CN5CCN(c6ccc([C@@H]7c8ccc(O)cc8CC[C@@H]7c7ccccc7)cc6)CC5)CCN43)C2=O)C(=O)N1` (stereo partly drawn) [Compound B244, 3-((S)-7-(2-(4-(4-((1R,2S)-6-hydroxy-2-phenyl-1,2,3,4-tetrahydronaphthalen-1-yl)phenyl)piperazin-1-yl)acetyl)-1-oxo-1,3,5,5a,6,7,8,9-octahydro-2H-pyrazino[1′,2′:4,5][1,4]oxazino[2,3-e]isoindol-2-yl)piperidine-2,6-dione] the IC50 [1] was under 1 nM.
`O=C1CC[C@H](N2Cc3c(ccc4c3OC[C@H]3CN(CC5CC6(C5)CN(c5ccc([C@@H]7c8ccc(O)cc8CC[C@@H]7c7ccccc7)cc5)C6)CCN43)C2=O)C(=O)N1` [Compound B351, (S)-3-((R)-7-((2-(4-((1R,2S)-6-hydroxy-2-phenyl-1,2,3,4-tetrahydronaphthalen-1-yl)phenyl)-2-azaspiro[3.3]heptan-6-yl)methyl)-1-oxo-1,3,5,5a,6,7,8,9-octahydro-2H-pyrazino[1′,2′:4,5][1,4]oxazino[2,3-e]isoindol-2-yl)piperidine-2,6-dione] gave an IC50 [1] of 1 to 10 nM.
`O=C1CC[C@H](N2Cc3c(ccc4c3OC[C@H]3CN(C[C@H]5COC6(CCN(c7ccc([C@@H]8c9ccc(O)cc9CC[C@@H]8c8ccccc8)cc7)CC6)C5)CCN43)C2=O)C(=O)N1` [Compound B397, (S)-3-((R)-7-(((S)-8-(4-((1R,2S)-6-hydroxy-2-phenyl-1,2,3,4-tetrahydronaphthalen-1-yl)phenyl)-1-oxa-8-azaspiro[4.5]decan-3-yl)methyl)-1-oxo-1,3,5,5a,6,7,8,9-octahydro-2H-pyrazino[1′,2′:4,5][1,4]oxazino[2,3-e]isoindol-2-yl)piperidine-2,6-dione] showed an IC50 [1] of under 1 nM.
Compound `O=C1CCC(N2Cc3cc4c(cc3C2=O)CN(CC(=O)N2CCC3(CC2)CN(c2ccc([C@@H]5c6ccc(O)cc6CC[C@@H]5c5ccccc5)cc2)C3)C4)C(=O)N1` (mixture of isomers) [Compound B183, 3-(6-(2-(2-(4-((1R,2S)-6-hydroxy-2-phenyl-1,2,3,4-tetrahydronaphthalen-1-yl)phenyl)-2,7-diazaspiro[3.5]nonan-7-yl)-2-oxoethyl)-1-oxo-3,5,6,7-tetrahydropyrrolo[3,4-f]isoindol-2(1H)-yl)piperidine-2,6-dione] has a DC50 [2] of under 10 nM.
For `O=C1CCC(N2C(=O)c3cc4c(cc3C2=O)CN(CC(=O)N2CCCC(Oc3ccc([C@@H]5c6ccc(O)cc6CC[C@@H]5c5ccccc5)cc3)C2)C4)C(=O)N1` (mixture of isomers) [Compound B13, 2-(2,6-dioxopiperidin-3-yl)-6-(2-(3-(4-((1R,2S)-6-hydroxy-2-phenyl-1,2,3,4-tetrahydronaphthalen-1-yl)phenoxy)piperidin-1-yl)-2-oxoethyl)-6,7-dihydropyrrolo[3,4-f]isoindole-1,3(2H,5H)-dione], the DC50 [2] was over 100 nM.
For `O=C1CCC(N2C(=O)c3cc4c(cc3C2=O)CN(CC2CN(C(=O)C3CCN(c5ccc([C@@H]6c7ccc(O)cc7CC[C@@H]6c6ccccc6)cc5)CC3)C2)C4)C(=O)N1` (mixture of isomers) [Compound B10, 2-(2,6-dioxopiperidin-3-yl)-6-((1-(1-(4-((1R,2S)-6-hydroxy-2-phenyl-1,2,3,4-tetrahydronaphthalen-1-yl)phenyl)piperidine-4-carbonyl)azetidin-3-yl)methyl)-6,7-dihydropyrrolo[3,4-f]isoindole-1,3(2H,5H)-dione], the DC50 [2] was 10 to 100 nM.
Compound `O=C1CCC(N2C(=O)c3cc4c(cc3C2=O)CN(CC2CCN(CC3CCN(c5ccc([C@@H]6c7ccc(O)cc7CC[C@@H]6c6ccccc6)cc5)CC3)CC2)C4)C(=O)N1` (stereo partly drawn) [Compound B273, 2-(2,6-dioxopiperidin-3-yl)-6-((1-((1-(4-((1R,2S)-6-hydroxy-2-phenyl-1,2,3,4-tetrahydronaphthalen-1-yl)phenyl)piperidin-4-yl)methyl)piperidin-4-yl)methyl)-6,7-dihydropyrrolo[3,4-f]isoindole-1,3(2H,5H)-dione] has a DC50 [2] of over 100 nM.
Compound `O=C1CCC(N2C(=O)c3cc4c(cc3C2=O)CC2(C4)CN(CC3CCN(c4ccc([C@@H]5c6ccc(O)cc6CC[C@@H]5c5ccccc5)cc4)CC3)C2)C(=O)N1` (stereo partly drawn) [Compound B296, 2′-(2,6-dioxopiperidin-3-yl)-1-((1-(4-((1R,2S)-6-hydroxy-2-phenyl-1,2,3,4-tetrahydronaphthalen-1-yl)phenyl)piperidin-4-yl)methyl)-5′,7′-dihydro-1′H-spiro[azetidine-3,6′-cyclopenta[f]isoindole]-1′,3′(2'H)-dione] has a DC50 [2] of over 100 nM.
Compound “3-(6-((1S,4s)-4-(3-((4-((1R,2S)-6-hydroxy-2-phenyl-1,2,3,4- tetrahydronaphthalen-1-yl)phenyl)amino)azetidin-1- yl)cyclohexane-1-carbonyl)-1-oxo-3,5,6,7- tetrahydropyrrolo[3,4-f]isoindol-2(1H)-yl)piperidine-2,6-dione [Compound B116]” has a DC50 [2] of over 100 nM.
Work on `O=C1CCC(N2C(=O)c3cc4c(cc3C2=O)CN(CC2CCN(CC3(F)CN(c5ccc([C@@H]6c7ccc(O)cc7CC[C@@H]6c6ccccc6)cc5)C3)CC2)C4)C(=O)N1` (stereo partly drawn) [Compound B74, 2-(2,6-dioxopiperidin-3-yl)-6-((1-((3-fluoro-1-(4-((1R,2S)-6-hydroxy-2-phenyl-1,2,3,4-tetrahydronaphthalen-1-yl)phenyl)azetidin-3-yl)methyl)piperidin-4-yl)methyl)-6,7-dihydropyrrolo[3,4-f]isoindole-1,3(2H,5H)-dione] yielded a DC50 [2] of over 100 nM.
`CN(C1CCC(N2Cc3cc4c(cc3C2)C(=O)N(C2CCC(=O)NC2=O)C4=O)CC1)C1CCN(c2ccc([C@@H]3c4ccc(O)cc4CC[C@@H]3c3ccccc3)cc2)CC1` (stereo partly drawn) [Compound B88, 2-(2,6-dioxopiperidin-3-yl)-6-(4-((1-(4-((1R,2S)-6-hydroxy-2-phenyl-1,2,3,4-tetrahydronaphthalen-1-yl)phenyl)piperidin-4-yl)(methyl)amino)cyclohexyl)-6,7-dihydropyrrolo[3,4-f]isoindole-1,3(2H,5H)-dione] showed a DC50 [2] of over 100 nM.
`O=C1CCC(N2C(=O)c3cc4c(cc3C2=O)CN(CC2(F)CCN(C(=O)C3(F)CN(c5ccc([C@@H]6c7ccc(O)cc7CC[C@@H]6c6ccccc6)cc5)C3)CC2)C4)C(=O)N1` (stereo partly drawn) [Compound B265, 2-(2,6-dioxopiperidin-3-yl)-6-((4-fluoro-1-(3-fluoro-1-(4-((1R,2S)-6-hydroxy-2-phenyl-1,2,3,4-tetrahydronaphthalen-1-yl)phenyl)azetidine-3-carbonyl)piperidin-4-yl)methyl)-6,7-dihydropyrrolo[3,4-f]isoindole-1,3(2H,5H)-dione] gave a DC50 [2] of over 100 nM.
`CN1C[C@@H]2CN(CC3CCN(c4ccc([C@@H]5c6ccc(O)cc6CC[C@@H]5c5ccccc5)cc4)CC3)CCN2c2cc3c(cc21)C(=O)N(C1CCC(=O)NC1=O)C3` (stereo partly drawn) [Compound B137, 3-((S)-3-((1-(4-((1R,2S)-6-hydroxy-2-phenyl-1,2,3,4-tetrahydronaphthalen-1-yl)phenyl)piperidin-4-yl)methyl)-6-methyl-8-oxo-2,3,4,4a,5,6,8,10-octahydropyrazino[1,2-a]pyrrolo[3,4-g]quinoxalin-9(1H)-yl)piperidine-2,6-dione] gave a DC50 [2] of 10 to 100 nM.
With `O=C1CCC(N2C(=O)c3cc4c(cc3C2=O)CN(Cc2cnc(N3CC(Oc5ccc([C@@H]6c7ccc(O)cc7CC[C@@H]6c6ccccc6)cc5)C3)cn2)C4)C(=O)N1` (stereo partly drawn) [Compound B104, 2-(2,6-dioxopiperidin-3-yl)-6-((5-(3-(4-((1R,2S)-6-hydroxy-2-phenyl-1,2,3,4-tetrahydronaphthalen-1-yl)phenoxy)azetidin-1-yl)pyrazin-2-yl)methyl)-6,7-dihydropyrrolo[3,4-f]isoindole-1,3(2H,5H)-dione] the DC50 [2] was over 100 nM.
